As usually defined, the EC50 is the concentration that produces a half-maximal response. The term IC50 denotes the concentration that inhibits the measured activity by half.

For this assay, the system named is CEM cells HIV-1 protection, formazan growth assay. As to the kind of experiment: NCI AIDS Antiviral Assay. The following applies: for IC50: measured here: growth of uninfected CEM cells. The gist of the method:
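Screen of anti-HIV-1 activity in human CEM cells using a formazan-based growth measurement at five drug concentrations. Hits with 50% or greater protection were repeated, and confirmation required reproducible complete protection.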

Calls of active or inactive are those of the source.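 The calls were made as follows: active = compounds giving half or more protection of infected cells from virus-caused growth loss, again on retest; inactive = the rest.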

Regarding `CCn1nc(-c2ccccc2)c2c1N(C)c1ccccc1-n1c(-c3ccccc3)nnc1-2`, the EC50 is more than 200 µM and the IC50 was determined as 26.3 µM. Turning to `CCCCCC[C@H]1CC(=O)C2CCCC[C@@]23CC[C@H](CCl)N13` (some centres not stated) (tested in a mixture with another compound), the EC50 was more than 200 µM and the IC50 was found to be 105 µM. On the same counts, the results for `O[C@H]1C=CC[C@H]2C(F)(F)[C@](F)(Cl)[C@@]12Cl` are more than 1000 µM and 186 µM. Consider `N#CCCC(CCC#N)(CCC#N)[N+](=O)[O-]`, for which the EC50 was more than 200 µM and the IC50 is more than 200 µM. For `O=C(NNC(=S)NC1OC(CO)C(O)C(O)C1O)c1cccc(C(=O)NNC(=S)NC2OC(CO)C(O)C(O)C2O)n1` (configuration not stated), the IC50 was more than 200 µM. For the molecule `O=C(O)C1CCCN1C(=O)c1ccccn1` (configuration not stated), the EC50 was more than 200 µM and the IC50 is more than 200 µM.

Turning to `CCOC(=O)CN1CCC(C2(c3cc4ccccc4[nH]3)OCCO2)CC1`, the EC50 is more than 363 µM and the IC50 was more than 363 µM. In the case of `COC(=O)C1=C(C)N2CCOC2(C)C(C(=O)OC)C1c1ccc[nH]1` (configuration not stated), the EC50 is more than 200 µM and the 50% inhibitory concentration (IC50) was more than 200 µM. With `Cc1nn(C)c2c1NC(=O)CS2`, the outcome was inactive. Turning to `CN1C2CC(=O)CC1[C@@H]1OC(c3ccccc3)O[C@H]21` (some centres not stated), the EC50 was more than 200 µM and the IC50 was more than 200 µM. `CC1(C)c2ccccc2-c2nc3ccccc3c3c2C1OC3=O` (configuration not stated): the EC50 is more than 832 µM and the IC50 was more than 832 µM. As for `CCN(CCCN(CC)C(=O)Nc1c(C)cccc1C)C(=O)Nc1c(C)cccc1C`, the EC50 was more than 200 µM and the IC50 is more than 200 µM. Turning to `CCOC(=O)C(=CNC(=S)c1cccnc1)C(=O)OCC`, the EC50 was more than 200 µM and the IC50 worked out at 17.8 µM. For `S=C(Nc1cccc2ccccc12)NN1CCCCCC1`, the EC50 was more than 17.4 µM and the IC50 is more than 17.4 µM. As to `CCC(=O)CCCC=C(c1cc(Cl)c(OC)c(C(=O)CC)c1)c1cc(Cl)c(OC)c(C(=O)CC)c1`, the EC50 was more than 200 µM and the IC50 came out at 6.31 µM.

With `N#C/C(=C\c1cc(O)c(O)c(Br)c1)C(=O)NCCCNC(=O)/C(C#N)=C/c1cc(O)c(O)c(Br)c1`, the EC50 was more than 200 µM and the IC50 came to 112 µM. The corresponding values for `CC(=O)OCC1OC(n2c3c(c(-c4ccc(Cl)cc4)c(C#N)c2=S)C(=O)CC(C)(C)C3)C(OC(C)=O)C(OC(C)=O)C1OC(C)=O` (configuration not stated) are more than 200 µM and 6.46 µM.

With `CC1CC(NN(C)C)=C(C#N)C1(C#N)C#N` (configuration not stated), the EC50 is more than 200 µM and the IC50 turned out to be 11.7 µM. For `OC1(CN2CCOCC2)N=C(c2ccccc2)c2ccsc2-n2cccc21` (configuration not stated), the EC50 is more than 200 µM and the IC50 is more than 200 µM. With `O=S(=O)(O)Cc1ccc([As](=O)(O)O)cc1`, the EC50 is more than 200 µM and the half-inhibitory concentration (IC50) is 129 µM.

Regarding `C#CCC(C#C)N(CCc1ccsc1)Cc1ccccc1` (configuration not stated), the EC50 was more than 200 µM and the IC50 was determined as 67.6 µM. `COc1cccc(-c2nc(-c3cnccn3)n(C3OC(CO)C(O)C3O)n2)c1` (configuration not stated): the EC50 was more than 200 µM and the IC50 is more than 200 µM.

Consider `CN(N)c1cc(=O)[nH]c(=O)[nH]1`, for which the EC50 was more than 200 µM and the IC50 is more than 200 µM.

Take `COC1=C(N=[N+]=[N-])C(=O)c2ncccc2C1=O`: the result was inactive. Take `COC(=O)c1cc(=O)nc(NN)s1`: the EC50 was more than 50.1 µM and the IC50 is more than 50.1 µM. On to `O=P(c1ccccc1)(c1ccccc1)C1CC=C2CCCCCC2C1` (configuration not stated), for which the EC50 was more than 5.37 µM and the IC50 was more than 5.37 µM. For the molecule `COc1ccc(C(=O)C(CC2C(=O)NC(=O)NC2=O)c2ccc(OC)cc2)cc1` (configuration not stated), the EC50 was more than 34.7 µM and the IC50 was more than 34.7 µM.

Regarding `CC(=O)O[C@@H]1CC[C@]2(C)C3CC[C@]4(C)C(C(C)CCc5nc6ccccc6[nH]5)CCC4C3CC[C@@H]2C1` (some centres not stated), the EC50 is more than 50.1 µM and the IC50 worked out at 15.5 µM. Consider `Cn1c(=O)n2n(c1=O)C(C)(C13CC4CC(CC(C4)C1)C3)C13CC4CC(CC1C4)CC23` (configuration not stated), for which the EC50 was more than 100 µM and the IC50 is more than 100 µM.

Regarding `Cc1ccc(S(=O)(=O)c2ccccn2)cc1`, the EC50 is 132 µM and the IC50 was 380 µM. On the same counts, the results for `CC(=O)OC12C3C4C1C1C2C3C41OC(C)=O` (configuration not stated) are more than 200 µM and more than 200 µM. The corresponding values for `CC(C)(C)COC(=O)C(C)(C)NC(=O)C(CC(=O)OCc1ccccc1)NC(=O)OCc1ccccc1` (configuration not stated) are more than 200 µM and 19.1 µM. Turning to `N#Cc1c(N2CCCC2)[nH]c(=O)[nH]c1=S`, the EC50 is more than 200 µM and the IC50 was more than 200 µM. For the molecule `CC1c2c(n(C)c3ccccc23)C2CCC3(CO3)C1N2Cc1ccccc1` (configuration not stated), the outcome was inactive. Take `O=C1NC(=O)C(C(=O)C(=O)Nc2ccc(Br)cc2)C(=O)N1`: the EC50 was more than 191 µM and the IC50 is more than 191 µM. On to `CC(=O)Nc1ccc(C(C2=C(O)c3ccccc3C(=O)C2=O)C2=C(O)c3ccccc3C(=O)C2=O)cc1`, for which the EC50 was more than 200 µM and the IC50 was found to be 16.2 µM.

Consider `O=C1C2c3[nH]c4ccccc4c3C3CCC(c4ccccc4)CC3C2C(=O)N1c1ccccc1` (configuration not stated), for which the result was inactive. Turning to `N=c1ccc2nc(N)nn(O)c-2c1`, the EC50 is more than 200 µM and the IC50 was more than 200 µM. `CCN(CC)C(=O)c1c2nc3c(C(=O)N(CC)CC)ccc(C)c3oc-2c(C)c(=O)c1N`: the EC50 is more than 200 µM and the IC50 was determined as 83.2 µM. `NC1CC(=O)c2cc(Cl)sc21` (configuration not stated): the EC50 is more than 200 µM and the IC50 is more than 200 µM. Turning to `O=S(Nc1ccccc1)c1ccc(N2CCOCC2)cc1` (configuration not stated), the EC50 was more than 200 µM and the half-maximal inhibitory concentration (IC50) amounted to 18.2 µM. Take `C=C1[C@H]2C[C@H]3[C@@H]4N5C[C@]6(C)CCCC47C6[C@@]5(O)CC3([C@@H]1O)[C@H]7[C@H]2O`: the result was inactive.

For `CC(=O)NS(=O)(=O)c1ccc(-n2sc3ccccc3c2=O)cc1`, the EC50 is 12.3 µM and the IC50 came out at 30.9 µM. Consider `NC1CC2C3CCC2C1C3=O` (configuration not stated), for which the EC50 is more than 200 µM and the IC50 was more than 200 µM.

For `COc1cccc(/C=C2\Cc3ccccc3C2=O)c1`, the EC50 is more than 4.17 µM and the IC50 was more than 4.17 µM.

For `C/C(=N/NC(=O)c1ccccc1Nc1ccccc1C(=O)N/N=C(\C)c1ccc(C)cc1)c1ccc(C)cc1`, the EC50 is more than 20 µM and the IC50 was 8.91 µM.

For the molecule `CCOC(=O)c1[nH]c2nc(SC)nc(NC)c2c1N`, the EC50 is more than 200 µM and the IC50 was determined as 129 µM. Regarding `CC(C)(C)c1cc(/C=C/C(=O)CC(=O)/C=C/c2cc(C(C)(C)C)c(O)c(C(C)(C)C)c2)cc(C(C)(C)C)c1O`, the EC50 was more than 200 µM and the IC50 was more than 200 µM. As to `COC(=O)[C@@H]1O[C@]12[C@@H](CO[Si](C)(C)C(C)(C)C)O[C@@H](n1cc(C)c(=O)[nH]c1=O)[C@@H]2O[Si](C)(C)C(C)(C)C`, the EC50 is more than 200 µM and the IC50 turned out to be 3.72 µM. Turning to `Cc1cc(O)c(C(C)(C)C)cc1Sc1cc(C(C)(C)C)c(O)cc1C`, the EC50 was more than 200 µM and the IC50 was determined as 6.46 µM. With `CC(O)c1ccc(C(O)/C(=N\NC(=O)c2ccncc2)c2nc3ccc([N+](=O)[O-])cc3[nH]c2=O)cc1` (configuration not stated), the EC50 is more than 74.1 µM and the IC50 is 60.3 µM.

With `CC(O)C1OC(O)C2OC(C)(C)OC12` (configuration not stated), the EC50 was more than 200 µM and the IC50 was more than 200 µM. In the case of `O=C1NC2(CCN(Cc3ccccc3)CC2)Oc2ccccc21`, the EC50 was more than 200 µM and the IC50 is more than 200 µM. Regarding `Nc1nc2nn(-c3ccc(C(=O)O)cc3)nc2c(=O)[nH]1`, the EC50 is more than 200 µM and the 50% inhibitory concentration (IC50) was more than 200 µM. For `CNc1ccccc1S(=O)(=O)c1ccccc1C(F)(F)F`, the EC50 is more than 200 µM and the IC50 amounted to 17 µM.

With `C/C=C(\CC)C(C#N)O[Si](C)(C)C` (configuration not stated), the result was inactive.

As for `O=C(O)C1OC(n2cc([N+](=O)[O-])c(=O)[nH]c2=O)C(O)C1O` (configuration not stated), the EC50 is more than 200 µM and the IC50 was more than 200 µM. For the molecule `c1ccc(N=c2nc(Nc3ccccc3)ss2)cc1`, the EC50 is more than 200 µM and the IC50 turned out to be 30.9 µM.

Turning to `COC1(OC)CC2OC1C1N=NN(C(=O)OC(C)(C)C)C21` (configuration not stated), the EC50 is more than 33.1 µM and the IC50 was more than 33.1 µM. `COc1cc2c(cc1OC)C(C#N)(Cc1ccccc1)N(C(=O)c1ccccc1)C=C2` (configuration not stated): the result was inactive. `CCCCCCCCCCCOc1ccc(C(=O)C(=O)c2ccc(OCCCCCCCCCCC)c(OCCCCCCCCCCC)c2)cc1OCCCCCCCCCCC`: the EC50 was more than 10.5 µM and the IC50 is more than 10.5 µM. For `O=C(N/C=C(/c1ccccc1)S(=O)Cc1ccccc1)Nc1ccccc1Cl` (configuration not stated), the EC50 was more than 501 µM and the IC50 was 17.4 µM. On the same counts, the results for `O=c1[nH]nc(Cc2ccccc2)n1-n1cnnc1` are more than 200 µM and more than 200 µM. `CCCCCCCCCC1C(C)c2c([nH]c3ccccc23)C2C(=O)N(c3ccccc3)C(=O)C21` (configuration not stated): the result was inactive. With `COc1cc2c(cc1OC)C13CC[N+]4(C)CC5CCOC6CCN2C1C6C5CC34` (configuration not stated), the EC50 was more than 479 µM and the IC50 was 66.1 µM. As to `CC1[C@@H](OCc2ccccc2)COC(=O)N1Cc1ccccc1` (some centres not stated), the EC50 is more than 200 µM and the IC50 stood at 89.1 µM. On to `CC(=O)Nc1ccc(C(=O)N2N=C(C)/C(=C/c3ccc(O)cc3)C2=O)cc1`, for which the EC50 is more than 37.2 µM and the IC50 is more than 37.2 µM. As to `O=C1/C(=C/c2ccccc2)CN(C(=O)OCC(Cl)(Cl)Cl)C/C1=C\c1ccccc1`, the result was inactive. For the molecule `COc1c(OC)c(OC)c2c(=O)cc(-c3ccc4c(c3)OCO4)oc2c1OC`, the EC50 was more than 200 µM and the IC50 is more than 200 µM. On to `COc1ccc(NC(=O)c2c(NC(=O)CN3CCOCC3)c(C#N)c3n2CCC3)cc1`, for which the EC50 is more than 100 µM and the IC50 was more than 100 µM.

In the case of `Cc1ccc(C(=O)Oc2ccc(/C=C3\CCC/C(=C\c4ccc(OC(=O)c5ccc(C)cc5)cc4)C3=O)cc2)cc1`, the EC50 was more than 100 µM and the IC50 is more than 100 µM.

The values above are taken from PubChem BioAssay AID179 (DTP/NCI, 2004).
